Results taken from ChEMBL document CHEMBL1177845, “Efficient synthesis and identification of novel propane-1,3-diamino bridged CCR5 antagonists with variation on the basic center carrier” (Eur J Med Chem, 2010).

What was measured:
[1] = molecular target: T1, C-C chemokine receptor type 5 (Homo sapiens, UniProt P51681); assay: Antagonist activity at CCR5 expressed in CHO cells assessed as inhibition of RANTES-stimulated GTPgammaS binding by scintillation proximity assay; format: functional, cell-based
Target sequence in this assay (P51681 whole entry): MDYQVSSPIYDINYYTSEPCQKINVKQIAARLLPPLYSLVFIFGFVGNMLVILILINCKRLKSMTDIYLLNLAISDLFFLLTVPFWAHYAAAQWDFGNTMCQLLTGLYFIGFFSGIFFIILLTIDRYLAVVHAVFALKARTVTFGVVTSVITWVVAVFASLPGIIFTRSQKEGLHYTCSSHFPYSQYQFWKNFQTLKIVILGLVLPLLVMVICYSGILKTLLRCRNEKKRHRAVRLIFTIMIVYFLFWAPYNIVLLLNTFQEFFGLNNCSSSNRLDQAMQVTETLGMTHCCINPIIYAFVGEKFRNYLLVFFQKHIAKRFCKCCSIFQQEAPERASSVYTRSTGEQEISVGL

[2] = molecular target: T1, C-C chemokine receptor type 5; assay: Antagonist activity at CCR5 expressed in CHO cells assessed as inhibition of RANTES-stimulated GTPgammaS binding at 30 nM by scintillation proximity assay
Target sequence in this assay (P51681 whole entry, looked up): as the sequence (P51681 whole entry) above

[3] = molecular target: T1, C-C chemokine receptor type 5; assay: Antagonist activity at CCR5 expressed in CHO cells assessed as inhibition of RANTES-stimulated GTPgammaS binding at 300 nM by scintillation proximity assay
Target sequence in this assay (P51681 whole entry, looked up): as the sequence (P51681 whole entry) above

| IC50 [1] [µM] | inhibition [2] [%] | inhibition [3] [%] | SMILES |
| --- | --- | --- | --- |
| 10 |  |  | COC(=O)C1(Cc2ccccc2)CCN(CC[C@H](NC(=O)C2CCC2)c2ccc(C(F)(F)F)cc2)CC1 |
|  | 3 | 7 | CC1(NC(=O)c2ccc(C(F)(F)F)cc2)CCN(CC[C@H](NC(=O)C2CCCCC2)c2cccc(F)c2)CC1 |
| > 10 |  |  | O=C(N[C@@H](CCN1CCC(CO)(Cc2ccccc2)CC1)c1ccc(C(F)(F)F)cc1)C1CCC1 |
| > 10 |  |  | CC(C)N(Cc1ccccc1)c1ccc(N2CCN(CC[C@H](NC(=O)C3CCCCC3)c3ccc(C(F)(F)F)cc3)CC2)cc1 |
| > 10 |  |  | CC(=O)N(c1ccc(N2CCN(CC[C@H](NC(=O)C3CCCCC3)c3ccc(C(F)(F)F)cc3)CC2)cc1)C(C)C |

Further lines, the compound ahead of its results:

| SMILES | IC50 [1] [µM] | inhibition [2] [%] | inhibition [3] [%] |
| --- | --- | --- | --- |
| COC(=O)C1(Cc2ccccc2)CCN(CC[C@H](NC(=O)C2CCC2)c2cccc3ccccc23)CC1 | > 10 |  |  |
| Cc1nnc(C(C)C)n1[C@H]1C[C@H]2CC[C@@H](C1)N2CC[C@H](NC(=O)COc1ccccc1)c1ccc(C(F)(F)F)cc1 | 0.253 |  |  |
| Cc1nc2cccnc2n1[C@H]1C[C@H]2CC[C@@H](C1)N2CC[C@H](NC(=O)c1ccc(F)cc1)c1cccc2ccccc12 | 10 |  |  |
| CC1(NC(=O)Cc2ccc(F)cc2)CCN(CC[C@H](NC(=O)C2CCCCC2)c2cccc(F)c2)CC1 |  | 31 | 95 |
| COc1ccc(C(=O)NC2(C)CCN(CC[C@H](NC(=O)C3CCCCC3)c3cccc(F)c3)CC2)cc1 |  | 9 | 33 |
| CC1(NC(=O)Cc2ccc(Cl)cc2)CCN(CC[C@H](NC(=O)C2CCCCC2)c2cccc(F)c2)CC1 |  | 28 | 91 |
| CC1(NC(=O)Cc2ccc(Cl)c(Cl)c2)CCN(CC[C@H](NC(=O)C2CCCCC2)c2cccc(F)c2)CC1 |  | 36 | 97 |
| CC1(NC(=O)CC23CC4CC(CC(C4)C2)C3)CCN(CC[C@H](NC(=O)C2CCCCC2)c2cccc(F)c2)CC1 |  | 21 | 46 |
| CC1(NC(=O)c2cccnc2)CCN(CC[C@H](NC(=O)C2CCCCC2)c2cccc(F)c2)CC1 |  | 35 | 44 |
| CC1(NC(=O)C2CCCCC2)CCN(CC[C@H](NC(=O)C2CCCCC2)c2cccc(F)c2)CC1 |  | 6 | 29 |
